Assay results from paper PMC4183567, “Cysteine Transport through Excitatory Amino Acid Transporter 3 (EAAT3)” (PLoS ONE, 2014).
Where two headings read alike, the source gives them in different places. Each block holds one molecule with its values, some of them ahead of it.

Legend:
EAAT3 and ASCT1 [1] = experiment: Release of preloaded [35S]-L-cysteine from Xenopus oocytes co-expressing EAAT3 and ASCT1; type: cell-based, human; details: 10 min
Protocol: (§1) mRNA from linearized pOTV-EAAT1, pOTV-EAAT2 and pOTV-EAAT3 was generated as previously described and resuspended in RNAase-free water and used for oocytes injections.
(§2) Oocytes were washed 3 times in ND96 buffer followed by incubation for 10 min with non-radiolabeled substrates as indicated. The supernatant was removed and collected for scintillation counting, while the oocytes were lysed in 1% sodium dodecylsulfate (SDS). The oocytes lysate and supernatant were counted separately by liquid scintillation counting to determine both retained and released radioactivity respectively. Percent of released radioactivity was determined as a function of the released/(retained + released).

EAAT3 and ASCT1 [2] = experiment: Substrate-gated NO3 currents in Xenopus oocytes co-expressing EAAT3 and ASCT1; type: cell-based, human; details: 1 mM substrate, oocytes co-expressing EAAT3 and ASCT1, n = 4
Protocol: (§3) mRNA from linearized pOTV-EAAT1, pOTV-EAAT2 and pOTV-EAAT3 was generated as previously described and resuspended in RNAase-free water and used for oocytes injections. Xenopus oocytes where injected with 50 nl of mRNA and incubated at 18°C in 96 mM NaCl, 2 mM KCl, 1.8 mM CaCl2, 1.0 mM MgCl2, 5 mM HEPES, pH 7.4 (ND96) supplemented with 2.5 mM Sodium Pyruvate and Gentamicyn for 2 to 3 days prior to using in electrophysiological recordings and radio-labeled transport experiments.
Oocytes were held at −60 mV, and currents elicited by 200 ms voltage steps between −120 mV and +60 mV were filtered at 2 kHz (−3dB) and digitalized with a sampling rate of 10 kHz using a Digidata AD/DA converter (Molecular Devices, Sunnyvale, CA, USA). Borosilicate pipets where filled with 3 M KCl and typical resistances where 0.2 to 1 MΩ. Transport currents were determined at −60 mV in a gluconate-based ND96 solution. In order to dialyze internal chloride, oocytes were incubated 12 to 24 hours in the gluconate solution. Anion currents were determined at positive potentials (+60 mV) after exchanging the external solution to NO3-based ND96 (replacement of 96 mM NaCl with 96 mM NaNO3) solution in the absence or in the presence of 1 mM external substrates. […] Data were analyzed with a combination of pClamp 9.2 (Axon Instrument) and Sigma Plot (Jandel Scientific, San Rafael, CA, USA). […]

EAAT3 and ASCT1 [3] = target: T1, EAAT3 and ASCT1 (Homo sapiens, UniProt P43005); experiment: Release of preloaded [3H]-L-glutamate from Xenopus oocytes co-expressing EAAT3 and ASCT1; type: cell-based
T1 construct: expressed in transfected cells; host or cells: Xenopus oocytes
T1 sequence (P43005 1-524): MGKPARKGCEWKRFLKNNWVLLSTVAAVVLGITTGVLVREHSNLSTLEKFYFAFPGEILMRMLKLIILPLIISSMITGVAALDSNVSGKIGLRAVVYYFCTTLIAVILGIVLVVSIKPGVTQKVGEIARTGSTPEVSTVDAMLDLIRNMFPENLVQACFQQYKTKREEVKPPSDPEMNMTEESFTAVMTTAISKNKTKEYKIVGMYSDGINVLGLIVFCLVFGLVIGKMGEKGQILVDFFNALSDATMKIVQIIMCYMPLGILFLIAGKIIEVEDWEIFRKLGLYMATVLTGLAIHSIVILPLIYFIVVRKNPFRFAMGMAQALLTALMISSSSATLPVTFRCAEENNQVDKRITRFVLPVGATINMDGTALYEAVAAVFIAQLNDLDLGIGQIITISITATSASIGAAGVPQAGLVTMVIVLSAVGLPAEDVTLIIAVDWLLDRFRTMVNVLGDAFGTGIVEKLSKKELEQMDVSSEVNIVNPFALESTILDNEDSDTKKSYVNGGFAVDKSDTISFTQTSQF
Protocol: as §3, §2

EAATs = details: very low affinity; cited from earlier work
EAAT3 [4] = target: T2, EAAT3 (Homo sapiens, UniProt P43005); experiment: Substrate-gated anion (NO3) currents in Xenopus oocytes expressing EAAT3; type: cell-based; details: 1 mM substrate, NaNO3, oocytes expressing EAAT3 alone, Figure 7C, n = 6
T2 sequence (P43005 1-524): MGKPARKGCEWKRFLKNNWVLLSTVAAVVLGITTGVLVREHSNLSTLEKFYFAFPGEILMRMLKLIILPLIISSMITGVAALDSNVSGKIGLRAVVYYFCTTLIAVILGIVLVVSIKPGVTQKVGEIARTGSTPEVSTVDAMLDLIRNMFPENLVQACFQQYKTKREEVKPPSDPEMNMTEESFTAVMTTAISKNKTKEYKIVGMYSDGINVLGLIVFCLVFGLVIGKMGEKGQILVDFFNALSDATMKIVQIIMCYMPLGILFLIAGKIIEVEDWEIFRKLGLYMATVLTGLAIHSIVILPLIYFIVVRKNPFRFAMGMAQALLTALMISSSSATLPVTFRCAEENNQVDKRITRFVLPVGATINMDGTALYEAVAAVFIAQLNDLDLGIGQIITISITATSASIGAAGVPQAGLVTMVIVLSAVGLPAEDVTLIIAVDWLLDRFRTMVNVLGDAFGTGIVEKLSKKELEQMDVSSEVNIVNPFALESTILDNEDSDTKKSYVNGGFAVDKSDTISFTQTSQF
Protocol: as §3
Oocytes were held at −60 mV, and currents elicited by 200 ms voltage steps between −120 mV and +60 mV were filtered at 2 kHz (−3dB) and digitalized with a sampling rate of 10 kHz using a Digidata AD/DA converter (Molecular Devices, Sunnyvale, CA, USA). Borosilicate pipets where filled with 3 M KCl and typical resistances where 0.2 to 1 MΩ. Transport currents were determined at −60 mV in a gluconate-based ND96 solution. In order to dialyze internal chloride, oocytes were incubated 12 to 24 hours in the gluconate solution. Anion currents were determined at positive potentials (+60 mV) after exchanging the external solution to NO3-based ND96 (replacement of 96 mM NaCl with 96 mM NaNO3) solution in the absence or in the presence of 1 mM external substrates. In experiments using cysteine as a substrate, all solutions contained 2 mM dithiothreitol (DTT). Data were analyzed with a combination of pClamp 9.2 (Axon Instrument) and Sigma Plot (Jandel Scientific, San Rafael, CA, USA). Whole cell current amplitudes are shown without any subtraction protocol. Current-voltage relationships were constructed by plotting the isochronal current 6 ms after the voltage step versus the membrane potential. All data are given as the mean ± standard deviation of the mean (SDM). For evaluation the statistical relevance, the Student’s t-Test was used with an α of 0.05.

EAAT3 [5] = target: T2, EAAT3; experiment: mEGFPpH fluorescence imaging of intracellular pH in HEK293 cells co-expressing EAAT3
Source text: Cells expressing mEGFPpH were imaged with a Zeiss Axiovert 135T inverted microscope with a 40X NeoFluar oil immersion objective (NA1.3). A Lambda DG4 (Sutter Instrument Co.) equipped with a xenon arc lamp was used for high-speed excitation wavelength switching. Images were collected using either a Quantix (Roper Scientific, Tucson, AZ) or an Orca ER (Hammamatsu Co.) cooled CCD. For pH imaging experiments, the fluorescence filters (Omega Optical) were: excitation 405±20 and 485±7.5; dichroic 400-480-585DLRP; emission 510±11.5. Software control and data acquisition were accomplished using Axon Imaging Workbench (INDEC Biosystems) or OpenLab acquisition software (Improvision, Perkin Elmer). Cells were incubated at room temperature with continuous perfusion using standard buffer containing (in mM): 146 NaCl, 5 KCl, 5 HEPES, 2.5 CaCl2 and 1.2 MgCl2 at pH 7.35 with additions (substrates etc.) as indicated in figure legends. Acquisition exposure times were identical for both 405 nm and 485 nm excitation wavelengths adjusted so that the 510 emission was not saturated for either excitation wavelength. Prior to perfusion with buffers containing substrates, cells were perfused in standard buffer to achieve a stable base line. Fluorescence was reported as the ratio of fluorescence at 510 nm by excitation with 485 and 405 nm wavelengths (F485/F405).

EAAT3 and ASCT1 [6] = target: T1, EAAT3 and ASCT1; experiment: Release of preloaded [35S]-L-cysteine from Xenopus oocytes co-expressing EAAT3 and ASCT1; type: cell-based; details: TBOA co-incubation
Protocol: as §1, §2

release of loaded [3H]-L-glutamate (EAAT3 and ASCT1 [3]; 1 mM extracellular substrate, data not shown): did not induce significant release | average anion current amplitude at +60 mV (EAAT3 [4]): 0.60±0.05 µA
SMILES: N[C@@H](CO)C(=O)O [serine, L-serine]
release of preloaded [35S]-L-cysteine (EAAT3 and ASCT1 [1]; 300 µM extracellular substrate): 10% | release of preloaded [35S]-L-cysteine (EAAT3 and ASCT1 [1]; 1 mM extracellular substrate): 20% | macroscopic anion current amplitude at +60 mV (EAAT3 and ASCT1 [2]): 0.6±0.07 µA | affinity for the transporters (EAATs): > 1 mM

SMILES: N[C@H](CC(=O)O)C(=O)O [D-aspartate]
mEGFPpH fluorescence change (EAAT3 [5]; 100 µM perfusion, EAAT3 HEK293 cells): fluorescence decrease similar to that observed for 100 µM glutamate

effect on cysteine-induced mEGFPpH fluorescence increase (EAAT3 [5]; 100 µM TBOA co-applied with 1 mM cysteine): blocked | effect on glutamate-induced mEGFPpH fluorescence changes (EAAT3 [5]; co-application with glutamate, data not shown): blocked | effect on [35S]-L-cysteine release in presence of 100 µM glutamate (EAAT3 and ASCT1 [6]): not significantly inhibited | effect on [35S]-cysteine release induced by 300 µM cysteine (EAAT3 and ASCT1 [6]): not inhibited | effect on [3H]-L-glutamate release induced by K+ containing buffer (EAAT3 and ASCT1 [3]; TBOA co-application, data not shown): blocking this release | effect on [3H]-L-glutamate release induced by 100 µM L-glutamate (EAAT3 and ASCT1 [3]; TBOA co-incubation): blocked | effect on [3H]-L-glutamate release induced by cysteine (EAAT3 and ASCT1 [3]; TBOA co-incubation): blocked
SMILES: N[C@H](C(=O)O)[C@H](OCc1ccccc1)C(=O)O [TBOA]

SMILES: Cl.N [NH4Cl]
average intracellular pH (pHi) (HEK293 cells; after NH4Cl washout): ~6.5 | average intracellular pH (pHi) (HEK293 cells; during 50 mM NH4Cl perfusion, initial pHi ~7.4, n = 4): ~8.5
